How the values were obtained:
[1] = system: pathogenic bacteria causing bacterial angular leaf spot in cucumbers; experiment: In vitro bactericidal activity, bacterial angular leaf spot in cucumbers; type: cell-based, pseudomonas; conditions: read-out: inhibitory rate; for inhibition at 1 ppm: dosage 1 ppm; for inhibition at 5 ppm: dosage 5 ppm
Experimental: (§1) Under aseptic conditions, equal amounts of NB culture medium were added to test tubes, and fixed amounts of the sample solutions were pipetted into the above test tubes in an ascending order of concentrations, respectively. The mixtures were well mixed and added with equal amounts of a bacterial suspension in log phase.
(§2) Each step of the procedure was repeated 4 times. After mixing, the mixture samples were incubated in the dark in a shaking incubator at 25° C. The OD values were measured when the bacteria were in log phase.

[2] = system: pathogenic bacteria causing bacterial wilt in tobacco; experiment: whole plant or invertebrate; type: cell-based, ralstonia; conditions: read-out: inhibitory rate
[3] = system: pathogenic bacteria causing black shank in potatoes; experiment: In vitro bactericidal activity, black shank in potatoes; type: cell-based; conditions: read-out: inhibitory rate; for inhibition at 1 ppm: dosage 1 ppm; for inhibition at 5 ppm: dosage 5 ppm
Experimental: as §1, §2

[4] = system: pathogenic bacteria causing stem rot in sweet potatoes; experiment: In vitro bactericidal activity, stem rot in sweet potatoes; type: cell-based, dikia; conditions: read-out: inhibitory rate; for inhibition at 1 ppm: dosage 1 ppm; for inhibition at 5 ppm: dosage 5 ppm
Experimental: as §1, §2

[5] = system: pathogenic bacteria causing bacterial blight in rice; experiment: whole plant or invertebrate; type: cell-based, xanthomonas; conditions: read-out: inhibitory rate
[6] = system: pathogenic bacteria causing fruit blotch in watermelons; experiment: In vitro bactericidal activity, fruit blotch in watermelons; type: cell-based, acidovorax; conditions: read-out: inhibitory rate; for inhibition at 1 ppm: dosage 1 ppm; for inhibition at 5 ppm: dosage 5 ppm
Experimental: as §1, §2

[7] = system: pathogenic bacteria causing black rot in Chinese cabbages; experiment: In vitro bactericidal activity, black rot in Chinese cabbages; type: cell-based, xanthomonas; conditions: Xanthomonas, read-out: inhibitory rate; for inhibition at 1 ppm: dosage 1 ppm; for inhibition at 5 ppm: dosage 5 ppm
Experimental: as §1, §2

[8] = system: pathogenic bacteria causing bacterial wilt in cassava; experiment: organism not typed; type: cell-based; conditions: read-out: inhibitory rate
[9] = system: pathogenic bacteria causing fire blight in pears; experiment: In vitro bactericidal activity, fire blight in pears; type: cell-based, erwinia; conditions: Erwinia, read-out: inhibitory rate; for inhibition at 1 ppm: dosage 1 ppm; for inhibition at 5 ppm: dosage 5 ppm
Experimental: as §1, §2

black shank in potatoes = experiment: Living crops in vivo protective activity, potatoes (root irrigation); conditions: Solanum tuberosum, read-out: efficacy against black shank in potatoes; for pest or weed control at 5 ppm: dosage 5 ppm; for pest or weed control at 10 ppm: dosage 10 ppm
Experimental: Root irrigation was carried out on the potatoes for tests according to the designed concentration of the agents. The dosage for each plant was 200 mL and was kept consistent (also for the control). The black shank bacteria were inoculated on the second day after the application. The results were investigated according to the disease condition.

cucumber seedlings = experiment: Safety for plant growth after application; type: in vivo; conditions: dosage 200 ppm
Source text: Taking indoor potted cucumber seedlings as an example, the influence of the compound disclosed herein on growth rate of plant height, chlorophyll content, leaf area, etc. of crops was mainly evaluated.
The results of safety and health-care effect of the compounds of the present disclosure on cucumber seedlings are shown in the following table 1: […]

[10] = system: bacterial wilt in tobacco; experiment: whole plant or invertebrate; conditions: Nicotiana tabacum, read-out: efficacy against bacterial wilt in tobacco
[11] = system: stem rot in sweet potatoes; experiment: whole plant or invertebrate; conditions: read-out: efficacy against stem rot in sweet potatoes
bacterial blight in rice = experiment: whole plant or invertebrate; conditions: Oryza sativa, read-out: efficacy against bacterial blight in rice
[12] = system: fruit blotch in watermelons; experiment: whole plant or invertebrate; conditions: read-out: efficacy against fruit blotch in watermelons
[13] = system: soft rot in Chinese cabbages; experiment: whole plant or invertebrate; conditions: 48 h, read-out: efficacy against soft rot in Chinese cabbages

SMILES | inhibition at 1 ppm [1] [%] | inhibition at 5 ppm [1] [%] | inhibition at 5 ppm [2] [%] | inhibition at 5 ppm [3] [%] | inhibition at 5 ppm [4] [%] | inhibition at 5 ppm [5] [%] | inhibition at 5 ppm [6] [%] | inhibition at 5 ppm [7] [%] | inhibition at 5 ppm [8] [%] | inhibition at 5 ppm [9] [%] | pest or weed control at 10 ppm (black shank in potatoes) [%] | safety for plant growth (discoloration, necrosis, wilt, malformation) (cucumber seedlings) | pest or weed control at 5 ppm [10] [%] | pest or weed control at 10 ppm [10] [%] | pest or weed control at 5 ppm [11] [%] | pest or weed control at 10 ppm [11] [%] | pest or weed control at 10 ppm (bacterial blight in rice) [%] | pest or weed control at 5 ppm [12] [%] | pest or weed control at 10 ppm [12] [%] | pest or weed control at 10 ppm [13] [%] | further results
COCOC(=O)c1cn(C2CC2)c2ccc(F)cc2c1=O [Compound 1, methoxymethyl 1-cyclopropyl-6-fluoro-4-oxo-1,4-dihydroquinoline-3-carboxylate] | ≥ 80 | ≥ 90 | ≥ 90 | ≥ 90 | ≥ 90 | ≥ 90 | ≥ 90 | ≥ 90 | ≥ 90 | ≥ 90 | ≥ 90 | safe for plant growth | ≥ 90 | ≥ 90 | ≥ 90 | ≥ 90 | ≥ 90 | ≥ 90 | ≥ 90 | ≥ 90 | inhibition at 1 ppm [2]: ≥ 80%; inhibition at 1 ppm [3]: ≥ 80%; inhibition at 1 ppm [4]: ≥ 80%; inhibition at 1 ppm [5]: ≥ 80%; inhibition at 1 ppm [6]: ≥ 80%; inhibition at 1 ppm [7]: ≥ 80%; inhibition at 1 ppm [8]: ≥ 80%; inhibition at 1 ppm [9]: ≥ 80%; pest or weed control at 5 ppm (black shank in potatoes): ≥ 80%; pest or weed control at 5 ppm (bacterial blight in rice): ≥ 80%; pest or weed control at 5 ppm [13]: ≥ 80%
CCOCOC(=O)c1cn(C2CC2)c2ccc(F)cc2c1=O [Compound 2] | – | ≥ 90 | ≥ 90 | ≥ 90 | ≥ 90 | ≥ 90 | ≥ 90 | ≥ 90 | ≥ 90 | ≥ 90 | ≥ 90 | safe for plant growth | ≥ 90 | ≥ 90 | ≥ 90 | ≥ 90 | ≥ 90 | ≥ 90 | ≥ 90 | ≥ 90 | –
O=C(OCCCO)c1cn(C2CC2)c2ccc(F)cc2c1=O [Compound 18] | ≥ 80 | ≥ 90 | ≥ 90 | ≥ 90 | ≥ 90 | ≥ 90 | ≥ 90 | ≥ 90 | ≥ 90 | ≥ 90 | ≥ 90 | safe for plant growth | ≥ 90 | ≥ 90 | ≥ 90 | ≥ 90 | ≥ 90 | ≥ 90 | ≥ 90 | ≥ 90 | inhibition at 1 ppm [2]: ≥ 80%; inhibition at 1 ppm [3]: ≥ 80%; inhibition at 1 ppm [4]: ≥ 80%; inhibition at 1 ppm [5]: ≥ 80%; inhibition at 1 ppm [6]: ≥ 80%; inhibition at 1 ppm [7]: ≥ 80%; inhibition at 1 ppm [8]: ≥ 80%; inhibition at 1 ppm [9]: ≥ 80%; pest or weed control at 5 ppm (black shank in potatoes): ≥ 80%; pest or weed control at 5 ppm (bacterial blight in rice): ≥ 80%; pest or weed control at 5 ppm [13]: ≥ 80%
O=C(OCCO)c1cn(C2CC2)c2ccc(Cl)cc2c1=O [Compound 44] | ≥ 80 | ≥ 90 | ≥ 90 | ≥ 90 | ≥ 90 | ≥ 90 | ≥ 90 | ≥ 90 | ≥ 90 | ≥ 90 | ≥ 90 | safe for plant growth | ≥ 90 | ≥ 90 | ≥ 90 | ≥ 90 | ≥ 90 | ≥ 90 | ≥ 90 | ≥ 90 | inhibition at 1 ppm [2]: ≥ 80%; inhibition at 1 ppm [3]: ≥ 80%; inhibition at 1 ppm [4]: ≥ 80%; inhibition at 1 ppm [5]: ≥ 80%; inhibition at 1 ppm [6]: ≥ 80%; inhibition at 1 ppm [7]: ≥ 80%; inhibition at 1 ppm [8]: ≥ 80%; inhibition at 1 ppm [9]: ≥ 80%; pest or weed control at 5 ppm (black shank in potatoes): ≥ 80%; pest or weed control at 5 ppm (bacterial blight in rice): ≥ 80%; pest or weed control at 5 ppm [13]: ≥ 80%
COCCOC(=O)c1cn(C2CC2)c2ccc(Cl)cc2c1=O [Compound 45, 2-methoxyethyl 6-chloro-1-cyclopropyl-4-oxo-1,4-dihydroquinoline-3-carboxylate] | ≥ 90 | ≥ 90 | ≥ 90 | ≥ 90 | ≥ 90 | ≥ 90 | ≥ 90 | ≥ 90 | ≥ 90 | ≥ 90 | ≥ 90 | safe for plant growth | ≥ 90 | ≥ 90 | ≥ 90 | ≥ 90 | ≥ 90 | ≥ 90 | ≥ 90 | ≥ 90 | inhibition at 1 ppm [2]: ≥ 90%; inhibition at 1 ppm [3]: ≥ 90%; inhibition at 1 ppm [4]: ≥ 90%; inhibition at 1 ppm [5]: ≥ 90%; inhibition at 1 ppm [6]: ≥ 90%; inhibition at 1 ppm [7]: ≥ 90%; inhibition at 1 ppm [8]: ≥ 90%; inhibition at 1 ppm [9]: ≥ 90%; pest or weed control at 5 ppm (black shank in potatoes): ≥ 80%; pest or weed control at 5 ppm (bacterial blight in rice): ≥ 80%; pest or weed control at 5 ppm [13]: ≥ 80%
O=C(OCCOC1CC1)c1cn(C2CC2)c2cc(Cl)c(F)cc2c1=O [Compound 160] | ≥ 80 | ≥ 90 | ≥ 90 | ≥ 90 | ≥ 90 | ≥ 90 | ≥ 90 | ≥ 90 | ≥ 90 | ≥ 90 | ≥ 90 | safe for plant growth | ≥ 90 | ≥ 90 | ≥ 90 | ≥ 90 | ≥ 90 | ≥ 90 | ≥ 90 | ≥ 90 | inhibition at 1 ppm [2]: ≥ 80%; inhibition at 1 ppm [3]: ≥ 80%; inhibition at 1 ppm [4]: ≥ 80%; inhibition at 1 ppm [5]: ≥ 80%; inhibition at 1 ppm [6]: ≥ 80%; inhibition at 1 ppm [7]: ≥ 80%; inhibition at 1 ppm [8]: ≥ 80%; inhibition at 1 ppm [9]: ≥ 80%; pest or weed control at 5 ppm (black shank in potatoes): ≥ 80%; pest or weed control at 5 ppm (bacterial blight in rice): ≥ 80%; pest or weed control at 5 ppm [13]: ≥ 80%
O=C(OCCCCO)c1cn(C2CC2)c2cc(Cl)c(F)cc2c1=O [Compound 177] | ≥ 90 | ≥ 90 | ≥ 90 | ≥ 90 | ≥ 90 | ≥ 90 | ≥ 90 | ≥ 90 | ≥ 90 | ≥ 90 | ≥ 90 | safe for plant growth | ≥ 90 | ≥ 90 | ≥ 90 | ≥ 90 | ≥ 90 | ≥ 90 | ≥ 90 | ≥ 90 | inhibition at 1 ppm [2]: ≥ 90%; inhibition at 1 ppm [3]: ≥ 90%; inhibition at 1 ppm [4]: ≥ 90%; inhibition at 1 ppm [5]: ≥ 80%; inhibition at 1 ppm [6]: ≥ 90%; inhibition at 1 ppm [7]: ≥ 90%; inhibition at 1 ppm [8]: ≥ 90%; inhibition at 1 ppm [9]: ≥ 90%; pest or weed control at 5 ppm (black shank in potatoes): ≥ 90%; pest or weed control at 5 ppm (bacterial blight in rice): ≥ 80%; pest or weed control at 5 ppm [13]: ≥ 90%
